ChEMBL document CHEMBL5465560, “Selectivity Literature for EUbOPEN Chemogenomic Library” (2024)

How the values were obtained:
[1] = biological target: T1, Serine/threonine-protein kinase LATS2 (Homo sapiens) (UniProt Q9NRM7); conditions: at 10 µM
T1 sequence (whole entry): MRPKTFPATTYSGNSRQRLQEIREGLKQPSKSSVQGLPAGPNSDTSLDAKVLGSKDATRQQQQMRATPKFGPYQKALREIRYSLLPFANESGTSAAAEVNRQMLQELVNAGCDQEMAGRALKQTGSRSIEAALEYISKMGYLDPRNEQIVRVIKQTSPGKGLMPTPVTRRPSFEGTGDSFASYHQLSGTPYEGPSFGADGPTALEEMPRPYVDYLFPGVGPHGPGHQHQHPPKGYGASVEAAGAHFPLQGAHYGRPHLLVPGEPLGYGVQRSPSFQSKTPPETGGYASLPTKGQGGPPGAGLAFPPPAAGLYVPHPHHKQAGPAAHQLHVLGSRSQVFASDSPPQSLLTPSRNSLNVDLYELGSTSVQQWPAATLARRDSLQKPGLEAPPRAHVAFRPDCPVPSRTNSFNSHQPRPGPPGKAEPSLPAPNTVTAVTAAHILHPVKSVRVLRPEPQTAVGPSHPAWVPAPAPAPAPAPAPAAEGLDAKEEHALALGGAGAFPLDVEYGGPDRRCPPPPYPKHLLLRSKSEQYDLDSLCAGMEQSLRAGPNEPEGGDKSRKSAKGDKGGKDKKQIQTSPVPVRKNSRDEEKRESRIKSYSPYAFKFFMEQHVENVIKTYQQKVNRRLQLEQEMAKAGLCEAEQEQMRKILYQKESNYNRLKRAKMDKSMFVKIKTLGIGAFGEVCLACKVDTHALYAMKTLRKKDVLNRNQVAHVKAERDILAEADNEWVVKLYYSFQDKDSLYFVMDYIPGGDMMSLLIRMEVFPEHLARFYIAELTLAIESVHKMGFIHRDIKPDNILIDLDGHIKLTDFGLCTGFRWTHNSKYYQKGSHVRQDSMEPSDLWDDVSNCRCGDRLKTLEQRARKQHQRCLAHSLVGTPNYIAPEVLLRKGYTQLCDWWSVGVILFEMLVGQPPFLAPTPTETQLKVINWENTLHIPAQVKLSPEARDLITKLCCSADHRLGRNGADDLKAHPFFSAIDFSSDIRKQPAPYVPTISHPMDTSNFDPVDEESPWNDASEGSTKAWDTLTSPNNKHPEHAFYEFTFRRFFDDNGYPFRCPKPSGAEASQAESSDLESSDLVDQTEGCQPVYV

[2] = biological target: T2, Mitogen-activated protein kinase kinase kinase 5 (Homo sapiens) (UniProt Q99683); experiment: Selectivity interaction (KinomeScan (DiscoverX)) EUB0000666a MAP3K5; conditions: at 10 µM
T2 sequence (whole entry): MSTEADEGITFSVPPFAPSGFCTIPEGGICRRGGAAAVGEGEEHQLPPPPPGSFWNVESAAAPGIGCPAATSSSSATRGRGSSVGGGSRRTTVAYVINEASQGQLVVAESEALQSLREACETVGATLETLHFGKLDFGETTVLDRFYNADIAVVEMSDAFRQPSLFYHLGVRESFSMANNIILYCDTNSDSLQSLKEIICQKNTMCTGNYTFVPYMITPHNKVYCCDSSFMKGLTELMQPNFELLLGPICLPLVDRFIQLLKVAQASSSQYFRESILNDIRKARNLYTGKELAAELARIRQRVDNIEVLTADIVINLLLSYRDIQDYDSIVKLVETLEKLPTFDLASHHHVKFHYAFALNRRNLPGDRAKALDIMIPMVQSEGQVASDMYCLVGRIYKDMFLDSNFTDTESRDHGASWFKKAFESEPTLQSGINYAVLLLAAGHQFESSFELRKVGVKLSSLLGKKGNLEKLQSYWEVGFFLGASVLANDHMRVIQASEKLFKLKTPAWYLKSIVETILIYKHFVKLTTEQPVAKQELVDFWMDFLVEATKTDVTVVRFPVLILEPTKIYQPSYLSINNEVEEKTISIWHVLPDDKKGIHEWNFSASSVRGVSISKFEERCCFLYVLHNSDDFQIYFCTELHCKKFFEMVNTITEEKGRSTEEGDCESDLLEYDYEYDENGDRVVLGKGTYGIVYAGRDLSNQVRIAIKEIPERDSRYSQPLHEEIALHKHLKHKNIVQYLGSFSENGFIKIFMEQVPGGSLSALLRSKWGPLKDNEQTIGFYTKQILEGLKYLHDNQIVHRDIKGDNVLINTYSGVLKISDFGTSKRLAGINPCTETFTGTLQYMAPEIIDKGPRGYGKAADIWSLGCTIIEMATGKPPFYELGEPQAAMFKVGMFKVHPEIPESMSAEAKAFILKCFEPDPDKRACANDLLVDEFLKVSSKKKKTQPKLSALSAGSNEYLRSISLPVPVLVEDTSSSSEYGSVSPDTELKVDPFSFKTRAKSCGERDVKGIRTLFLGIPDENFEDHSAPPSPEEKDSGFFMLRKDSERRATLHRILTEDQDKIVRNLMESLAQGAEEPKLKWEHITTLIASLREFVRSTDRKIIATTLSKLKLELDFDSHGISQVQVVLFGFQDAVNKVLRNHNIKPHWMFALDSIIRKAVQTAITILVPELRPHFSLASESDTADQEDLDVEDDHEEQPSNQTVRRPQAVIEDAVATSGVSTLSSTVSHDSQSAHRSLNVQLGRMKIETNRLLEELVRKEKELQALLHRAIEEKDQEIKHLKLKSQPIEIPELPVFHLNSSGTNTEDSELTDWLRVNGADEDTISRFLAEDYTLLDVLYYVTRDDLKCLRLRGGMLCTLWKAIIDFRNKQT

[3] = biological target: Serine/threonine-protein kinase SBK1 (Homo sapiens) (UniProt Q52WX2); experiment: Selectivity interaction (KinomeScan (DiscoverX)) EUB0000666a SBK1; conditions: at 10 µM
[4] = biological target: Mitogen-activated protein kinase kinase kinase 14 (Homo sapiens) (UniProt Q99558); experiment: Selectivity interaction (KinomeScan (DiscoverX)) EUB0001049a MAP3K14; conditions: at 1 µM
Mitogen-activated protein kinase kinase kinase 14 (Homo sapiens), sequence (Q99558 whole entry, looked up): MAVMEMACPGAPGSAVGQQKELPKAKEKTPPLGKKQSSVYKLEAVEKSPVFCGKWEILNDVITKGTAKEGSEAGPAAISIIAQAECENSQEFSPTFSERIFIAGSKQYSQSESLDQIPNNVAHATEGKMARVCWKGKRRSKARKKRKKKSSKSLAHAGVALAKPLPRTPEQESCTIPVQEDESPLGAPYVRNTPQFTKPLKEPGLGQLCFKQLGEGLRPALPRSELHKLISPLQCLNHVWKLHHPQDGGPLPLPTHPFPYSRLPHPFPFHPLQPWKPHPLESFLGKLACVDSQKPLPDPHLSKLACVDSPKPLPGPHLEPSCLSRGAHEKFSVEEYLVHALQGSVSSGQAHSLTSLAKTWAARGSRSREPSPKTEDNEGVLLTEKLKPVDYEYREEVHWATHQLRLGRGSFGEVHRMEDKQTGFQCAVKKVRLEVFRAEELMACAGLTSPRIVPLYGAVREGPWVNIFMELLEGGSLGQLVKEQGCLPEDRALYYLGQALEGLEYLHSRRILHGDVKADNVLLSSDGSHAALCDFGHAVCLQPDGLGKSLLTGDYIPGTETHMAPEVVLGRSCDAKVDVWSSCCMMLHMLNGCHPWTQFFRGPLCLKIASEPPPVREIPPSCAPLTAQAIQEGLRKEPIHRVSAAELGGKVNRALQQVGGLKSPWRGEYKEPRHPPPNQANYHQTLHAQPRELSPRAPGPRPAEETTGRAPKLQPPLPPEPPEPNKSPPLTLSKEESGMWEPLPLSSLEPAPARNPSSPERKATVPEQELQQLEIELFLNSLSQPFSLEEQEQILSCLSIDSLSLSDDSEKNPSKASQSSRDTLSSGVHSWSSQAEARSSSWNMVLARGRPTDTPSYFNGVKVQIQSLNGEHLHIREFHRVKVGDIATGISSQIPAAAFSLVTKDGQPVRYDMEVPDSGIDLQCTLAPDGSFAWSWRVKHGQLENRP

Serine/threonine-protein kinase SBK1 (Homo sapiens), sequence (Q52WX2 whole entry): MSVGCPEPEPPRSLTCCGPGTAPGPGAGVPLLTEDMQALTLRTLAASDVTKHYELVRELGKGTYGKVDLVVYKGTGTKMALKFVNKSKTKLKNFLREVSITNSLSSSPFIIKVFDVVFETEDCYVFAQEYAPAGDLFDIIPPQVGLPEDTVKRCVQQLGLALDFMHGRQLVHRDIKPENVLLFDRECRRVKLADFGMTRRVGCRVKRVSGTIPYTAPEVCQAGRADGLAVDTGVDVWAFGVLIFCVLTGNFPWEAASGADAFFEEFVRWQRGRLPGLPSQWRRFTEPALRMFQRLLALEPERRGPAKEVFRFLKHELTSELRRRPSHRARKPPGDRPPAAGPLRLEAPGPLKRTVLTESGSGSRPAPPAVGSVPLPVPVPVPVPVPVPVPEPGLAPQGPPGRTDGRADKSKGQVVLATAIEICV

Compound: CCN(CC)CCCCNc1ncc2cc(-c3cc(OC)cc(OC)c3)c(NC(=O)NC(C)(C)C)nc2n1
- % of control [1]: 100%

Compound: O=C(NOC[C@H](O)CO)c1ccc(F)c(F)c1Nc1ccc(I)cc1F
- % of control [2]: 91%
- % of control [3]: 100%

Compound: COc1cc(Nc2nc(C)cc(-c3cnn4nc(OC)ccc34)n2)cc(C(F)(F)F)c1
- % of control [4]: 98%
